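Exposure lasted 48 hours, with cells grown in 96-well plates and compounds tested at five concentrations. TGI: concentration producing complete growth inhibition.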
What was measured:
Assay in all cases: NCI-60 cell line screen, 48 h
LXFL 529 NSCLC = tested on: LXFL 529 NSCLC
HOP-18 NSCLC = tested on: HOP-18 NSCLC
XF 498 CNS = tested on: XF 498 CNS
SNB-78 CNS = tested on: SNB-78 CNS

SMILES | TGI (LXFL 529 NSCLC) [µM] | TGI (HOP-18 NSCLC) [µM] | TGI (XF 498 CNS) [µM] | TGI (SNB-78 CNS) [µM]
C=C1CCC23CC(CC[C@@H]2[C@@]12C[C@@H](c1ccoc1)OC2=O)OC3=O (stereo partly specified) | > 100 | > 100 | > 100 | > 100
COc1ccc(-c2cc(=O)c3ccccc3[nH]2)c(OC)c1 | > 100 | – | – | > 100
CCOC(=O)C(Cc1cn(S(=O)(=O)c2ccccc2)c2ccccc12)(NC(C)=O)C(=O)OCC | 95.5 | – | > 100 | –
CCN(CC)CC(=O)O[C@]1(CC)C(=O)OCc2c1cc1n(c2=O)Cc2cc3ccccc3nc2-1 | 3.3 | > 100 | 2.19 | > 100
COc1cccc(/C=C2\C(=O)N(C(=O)c3ccc(NC(C)=O)cc3)N=C2C)c1 | – | – | > 100 | > 100
C=CCc1cc(-c2cc(CC=C)c(O)c(CNCCCl)c2)cc(CNCCCl)c1O | 29.3 | – | – | > 100

Reference: PubChem BioAssay (NCI)
